Reference: patent publication US20260248815A1, “NEUROACTIVE STEROID FORMULATIONS AND METHODS OF USE THEREOF” (Sage Therapeutics, LLC, priority 2023, published 2026)
Where two headings read alike, the source gives them in different places.

Assay: Open-label single-dose PK study in participants with hepatic impairment and normal hepatic function
Format: in vivo, human
Conditions: GeoMean, single 1.2 mg oral dose softgel capsules; for Cmax / AUC(0-inf) / AUC(0-t) / Tmax / Vd/F: human, in vivo, po, 1.2 mg; for Vd/F: read-out: Vz/F
Protocol: In an open-label, parallel group study to evaluate the PK, safety, and tolerability of Compound I, a single 1.2 mg oral dose of softgel capsules was administered to participants with hepatic impairment and in participants with normal hepatic function. Part 1 of the study comprised participants with moderate hepatic impairment (as determined by the Child-Pugh classifications; Class B (7 to 9 points)) and participants with normal hepatic function assigned to Cohorts 1 and 2, respectively. After Cohort 1 had been completely enrolled, participants with normal hepatic function (Cohort 2) were matched to Cohort 1 participants with respect to sex, mean age (10 years) and mean body mass index (BMI; 20%).
On Day 1, participants in Cohorts 1 and 2 received a single oral dose of 1.2 mg Compound I softgel capsules in the morning. Serial blood samples for PK analysis were collected through 168 hours post dose.

[1] = Cohort 1: moderate hepatic impairment, N 8
[2] = Cohort 2: normal hepatic function, N 7
[3] = Cohort 2: normal hepatic function, N 8

CLz/F [1]: 5.5 L/h
tlast [1]: 53.9 h
CLz/F [2]: 4.71 L/h
tlast [3]: 64.3 h
Cmax (Cohort 1: moderate hepatic impairment (Child-Pugh Class B), N 8): 12.2 ng/mL
AUC(0-inf) [1]: 218 ng·h/mL
AUC(0-t) [1]: 188 ng·h/mL
Tmax [1]: 3.69 h
Vd/F [1]: 153 L
AUC(0-inf) [2]: 255 ng·h/mL
AUC(0-t) [2]: 238 ng·h/mL
Vd/F [2]: 151 L
Cmax [3]: 15.7 ng/mL
Tmax [3]: 3.99 h
SMILES: C[C@H](CC[C@](C)(O)C(F)(F)F)[C@H]1CC[C@H]2[C@@H]3CC=C4C[C@@](C)(O)CC[C@]4(C)[C@H]3CC[C@]12C [Compound I]
